Experimental data taken from patent US11446265B2, “Reagents, compositions and methods for improving viability and function of cells, tissues and organs” (TARGA BIOMEDICAL, priority 2016, dated 2022).

Columns and labels:
H9c2 cardiomyoblasts [1] = test: H9c2 viability after oxidative challenge, direct treatment with Celastrol combinations; format: cell-based, rat; details: 1-hour treatment combined with Celastrol; 1 mM H2O2 for 1 hour
H9c2 cardiomyoblasts [2] = test: HO-1 and VEGFa mRNA in H9c2 cardiomyoblasts by real-time PCR; format: cell-based, rat; details: H9c2, 1-hour with Celastrol plus adjunct, 3 hour washout in normoxic or hypoxic condition
Text: Results are expressed as fold change versus Vehicle-treated h9c2.

[3] = test system: human mesenchymal stem cells (hMSCs); test: VEGFa protein secreted by hMSC into culture medium; format: cell-based; details: 1-hour treatment combined with Celastrol; for VEGF protein after 48 hours in hypoxic condition: compared with normal culture; for VEGF protein after 48 hours in normal culture: normoxic
[4] = test system: human mesenchymal stem cells (hMSC); test: mRNA expression in hMSC by real-time PCR; format: cell-based; details: for ranking as adjunct agent in combination with Celastrol or Celastrol analogs (gene expression) / ranking as HSP90 inhibitor from expression of HSPs, growth factors, antioxidant proteins/enzymes, cytokines, matrix remodeling proteins: FIGS. 25A, 25B, 26A to 26D
Text: FIG. 25A is a table representing mRNA expression of selected genes measured by real-time PCR in human mesenchymal stem cells (hMSC) conditioned with Celastrol alone or in combination with selected adjunct agents. Results are expressed as fold change versus Vehicle-treated cells.
FIG. 25B is a table representing mRNA expression of selected genes measured by real-time PCR in human mesenchymal stem cells (hMSC) conditioned with selected Celastrol analogs alone or in combination with selected adjunct agents. Results are expressed as fold change versus Vehicle-treated cells.
Results are expressed as fold change versus Vehicle-treated cells. (Arbitrary angiogenic index: (VEGFa+FGF2+SDF1)*2) (A=Additive effect; S=Synergistic effect).
(§1) To test the second main condition, MSCs were treated with the candidate pharmaco-optimizers for 1 hour, followed by 3 hours washout period. Cell mRNA was extracted and expression of genes of interest was quantified by real time PCR. In additional MSC cultures, cells were treated for one hour, washed and cultured in low serum media for 24 hours. The media containing paracrine factors secreted by MSCs was then placed in contact with H9c2 cardiomyoblast cell line. H9c2 cells were then submitted to the hypoxia/serum starvation (<1% O2 in hypoxia chamber in low serum media for 48 hours) or oxidative stress (incubation in media for 1 hour spiked with 0-1 mM H2O2). Viability status of H9c2 cells was evaluated using the LIVE/DEAD assay as detailed above.

H9c2 cardiomyoblasts [5] = test: H9c2 viability under hypoxia/serum starvation (LIVE/DEAD); format: cell-based, rat; details: 1 uM
Method: For survival to hypoxic challenge and oxidative challenge, H9c2 cardiomyoblasts are submitted to the hypoxia/serum starvation (<1% O2 in hypoxia chamber in low serum media for 48 hours) or oxidative stress (incubation in media for 1 hour spiked with 0-1 mM H2O2). Viability status of H9c2 cells was evaluated using the LIVE/DEAD assay.

H9c2 cardiomyoblasts [6] = test: H9c2 viability under hypoxia/reoxygenation stress; format: cell-based, rat; details: 1 uM
Method: Next, the hypoxia/reoxygenation challenge is performed. Briefly, viability analysis was performed in rat H9c2 cardiomyoblasts as previously reported. For hypoxia/reoxygenation stress, cells were cultured in DMEM no glucose (Life Technologies), serum starved and placed in hypoxic conditions (<1% O2) for 18 h. At reoxygenation (normoxic conditions), cells were treated with Celastrol (10^−10 to 10^−6 mol/L, Cayman Chemical, Ann Arbor, Mich.), Celastrol analogs or vehicle (Dimethyl sulfoxide (DMSO), Sigma-Aldrich Canada, Oakville, ON; final concentration<1% v/v) in DMEM high glucose 1% FBS for 1 h, then reoxygenation was continued in DMEM high glucose for an additional 5 h.

[7] = test system: antioxidant responsive elements (ARE); test: Antioxidant response luciferase reporter assay in H9c2; format: cell-based, rat; details: H9c2, 10E-5 to 10E-10M, 4 hours, 3 hours washout
Method: (§2) H9c2 rat cardiomyoblasts were seeded at a density of 5,000 cells per well in 96 well plates in DMEM 10% FBS complete medium and transfected using lipofectamine with the Cignal Reporter Assay Heat shock response and Antioxidant response kits (SABiosciences, Qiagen) according to the manufacturers' protocol.

[8] = test system: heat shock response (HSR); test: Heat shock response luciferase reporter assay in H9c2; format: cell-based, rat; details: H9c2, 10E-5 to 10E-10M, 4 hours, 3 hours washout
Method: as §2

[9] = test system: human mesenchymal stem cells (hMSC); test: Proteomic analysis (mass spectrometry) of conditioned media of treated hMSC; format: cell-based; details: one hour Celastrol 10^−6 M
Method: Conditioned cell media was collected, concentrated, proteins were separated by gel electrophoresis and analyzed by mass spectrometry and identified through database search.
Briefly, rat MSCs were treated in suspension with conditioning compounds for 60 minutes. Cells were then washed, labeled with fluorescent cell tracker and injected at t=0 in rat left ischemic hindlimb. Transplanted cells were imaged in vivo until day 9 using Optix™ MX3 Molecular Imaging System from ART (FIG. 2: A,B).

[10] = test system: rat mesenchymal stem cells (rMSC); test: rMSC viability after oxidative stress (H2O2, LIVE/DEAD); format: cell-based; details: 1-hour treatment
Method: (§3) To test the first main condition, MSCs (either sourced from rat or humans) were treated with the candidate pharmaco-optimizers, washed and submitted to hypoxia/serum starvation (<1% O2 in hypoxia chamber in low serum media for 48-72 hours) or oxidative stress (incubation in media for 1 hour spiked with 0-2 mM H2O2), which mimic the major lethal stressors present in the ischemic transplant microenvironment. Viability status of cells are assessed using the LIVE/DEAD viability/cytotoxicity kit (Life Technologies™) and results are quantified by Operetta high content screening (HCS) apparatus equipped with Harmony automated analysis software (Perkin Elmer™).

H9c2 cells = test: H9c2 viability in oxidative stress after pre-conditioning with media from treated rMSC (paracrine); format: cell-based, rat; details: 24-hour preconditioning with media from treated rMSC
Method: as §1

[11] = test system: rat mesenchymal stem cells (rMSC); test: mRNA expression in rMSC by real time PCR; format: cell-based; details: for effect on Celastrol-induced Catalase (CAT) mRNA expression / effect on Celastrol-induced FGF2 mRNA expression / effect on Celastrol-induced Glutathione peroxidase (GPx) mRNA expression / effect on Celastrol-induced Glutathione reductase (GR) mRNA expression / effect on Celastrol-induced HSP32 (HO-1) mRNA expression / effect on Celastrol-induced HSP70 mRNA expression / effect on Celastrol-induced Superoxide dismutase 1 (SOD1) mRNA expression / effect on Celastrol-induced VEGFα mRNA expression / effect on Celastrol-induced downregulation of TNFα mRNA / effect on Celastrol-induced HSP70 expression in two other rMSC cell lines: combined with Celastrol
Method: as §1
Combination Treatments Tested—First Experiment: Celastrol (1 μM) or Gedunin (1 μM)+EGCG (1 μM, 10 μM) or TBHQ (1 μM, 5 μM)

[12] = test system: rat mesenchymal stem cells (rMSC); test: rMSC viability after hypoxia/serum starvation (LIVE/DEAD); format: cell-based; details: 1-hour treatment; for protection of rMSCs from 48-hour hypoxia induced cell death: compound alone
Method: as §3

[13] = 1-hour treatment and 3-hour washout, combined with Celastrol
[14] = rMSC, 1-hour treatment and 3-hour washout
[15] = rMSC, 1-hour treatment and 3-hour washout, combined with Gedunin

O=C(C=Cc1ccccc1O)C=Cc1ccccc1O [Analog 2HBA, Bis(2-hydroxybenzylidene)acetone]
viability of H9c2 cells following oxidative challenge (H9c2 cardiomyoblasts [1]): synergistic increase in viability
mRNA expression of HO-1 (H9c2 cardiomyoblasts [2]): increased mRNA expression
mRNA expression of VEGFa (H9c2 cardiomyoblasts [2]): increased mRNA expression
VEGF protein after 48 hours in hypoxic condition [3]: even greater expression of VEGF protein
VEGF protein after 48 hours in normal culture [3]: additive to synergistic increase in VEGF protein
ranking as adjunct agent in combination with Celastrol or Celastrol analogs (gene expression) [4]: among top adjunct agents

Cc1c(O)c(O)cc2c1[C@H](C[N+](=O)[O-])C=C1[C@@]2(C)CC[C@@]2(C)[C@@H]3C[C@](C)(C(=O)O)CC[C@]3(C)CC[C@]12C [Analog 2]
protection of H9c2 cardiomyoblasts from hypoxia (H9c2 cardiomyoblasts [5]): effective
protection of H9c2 cardiomyoblasts from hypoxia/reoxygenation stress (H9c2 cardiomyoblasts [6]): effective

CC1=C(O)C(=O)C=C2C1=CC=C1[C@@]2(C)CC[C@@]2(C)[C@@H]3C[C@](C)(C(=O)NCCO)CC[C@]3(C)CC[C@]12C [Analog 3]
stimulation of reporter gene controlled by antioxidant responsive elements (ARE) [7]: among the most potent and efficient compounds tested
stimulation of reporter gene controlled by heat shock responsive elements (HSR) [8]: among the most potent and efficient compounds tested
protection of H9c2 cardiomyoblasts from hypoxia (H9c2 cardiomyoblasts [5]): effective
protection of H9c2 cardiomyoblasts from hypoxia/reoxygenation stress (H9c2 cardiomyoblasts [6]): effective
ranking as HSP90 inhibitor from expression of HSPs, growth factors, antioxidant proteins/enzymes, cytokines, matrix remodeling proteins [4]: best HSP90 inhibitors

CC1=C(O)C(=O)C=C2C1=CC=C1[C@@]2(C)CC[C@@]2(C)[C@@H]3C[C@](C)(C(=O)NO)CC[C@]3(C)CC[C@]12C [Analog 4]
stimulation of reporter gene controlled by antioxidant responsive elements (ARE) [7]: among the most potent and efficient compounds tested
stimulation of reporter gene controlled by heat shock responsive elements (HSR) [8]: among the most potent and efficient compounds tested
protection of H9c2 cardiomyoblasts from hypoxia (H9c2 cardiomyoblasts [5]): effective
protection of H9c2 cardiomyoblasts from hypoxia/reoxygenation stress (H9c2 cardiomyoblasts [6]): effective

CC(C)c1cc2c(c(O)c1O)[C@@]13CCCC(C)(C)[C@@H]1C[C@@H]2OC3=O [Carnosol]
ranking as adjunct agent in combination with Celastrol or Celastrol analogs (gene expression) [4]: among top adjunct agents

CC1=C(O)C(=O)C=C2C1=CC=C1[C@@]2(C)CC[C@@]2(C)[C@@H]3C[C@](C)(C(=O)O)CC[C@]3(C)CC[C@]12C [Celastrol]
increased level of CAT in the culture media [9]: 1,7 fold
increased level of GSH in the culture media [9]: 2,8 fold
increased level of HGF in the culture media [9]: 2,1 fold
increased level of HO1 in the culture media [9]: 2,2 fold
increased level of HSP70 in the culture media [9]: 1,8 fold
increased level of HSP90a in the culture media [9]: 7,0 fold
increased level of HSP90b in the culture media [9]: 2,2 fold
increased level of MCSF in the culture media [9]: 24,4 fold
increased level of TRX in the culture media [9]: 2,5 fold

COc1cc(/C=C/C(=O)CC(=O)/C=C/c2ccc(O)c(OC)c2)ccc1O [Curcumin]
VEGF protein after 48 hours in hypoxic condition [3]: even greater expression of VEGF protein
VEGF protein after 48 hours in normal culture [3]: additive to synergistic increase in VEGF protein
ranking as adjunct agent in combination with Celastrol or Celastrol analogs (gene expression) [4]: among top adjunct agents

Cc1c(O)c(O)cc2c1CC=C1[C@@]2(C)CC[C@@]2(C)[C@@H]3C[C@](C)(C(=O)O)CC[C@]3(C)CC[C@]12C [Dihydrocelastrol, dihydrocelastrol]
ranking as HSP90 inhibitor from expression of HSPs, growth factors, antioxidant proteins/enzymes, cytokines, matrix remodeling proteins [4]: best HSP90 inhibitors

O=C(O[C@@H]1Cc2c(O)cc(O)cc2O[C@@H]1c1cc(O)c(O)c(O)c1)c1cc(O)c(O)c(O)c1 [EGCG, epigallocatechin gallate]
viability of H9c2 cells following oxidative challenge (H9c2 cardiomyoblasts [1]): synergistic increase in viability
mRNA expression of HO-1 (H9c2 cardiomyoblasts [2]): increased mRNA expression
mRNA expression of VEGFa (H9c2 cardiomyoblasts [2]): increased mRNA expression
VEGF protein after 48 hours in hypoxic condition [3]: even greater expression of VEGF protein
VEGF protein after 48 hours in normal culture [3]: additive to synergistic increase in VEGF protein
effect on Celastrol-induced protection of rMSCs from oxidative stress induced death ([10]; combined with Celastrol): potentiates Celastrol-induced protection
protection of rMSCs from oxidative stress induced death ([10]; compound alone): protect
protection of H9c2 cells from oxidative stress induced death (paracrine) (H9c2 cells): protects
effect on Celastrol-induced HSP32 (HO-1) mRNA expression in human MSC [4, 13]: synergistic increase
effect on Celastrol-induced HSP70 mRNA expression in human MSC [4, 13]: synergistic increase
ranking as adjunct agent in combination with Celastrol or Celastrol analogs (gene expression) [4]: among top adjunct agents
effect on Celastrol-induced Catalase (CAT) mRNA expression [11, 14]: synergistic increase
effect on Celastrol-induced FGF2 mRNA expression [11, 14]: synergistic increase
effect on Celastrol-induced Glutathione peroxidase (GPx) mRNA expression [11, 14]: synergistic increase
effect on Celastrol-induced Glutathione reductase (GR) mRNA expression [11, 14]: synergistic increase
effect on Celastrol-induced HSP32 (HO-1) mRNA expression [11, 14]: synergistic increase
effect on Celastrol-induced HSP70 mRNA expression [11, 14]: synergistic increase
effect on Celastrol-induced Superoxide dismutase 1 (SOD1) mRNA expression [11, 14]: synergistic increase
effect on Celastrol-induced VEGFα mRNA expression [11, 14]: synergistic increase
effect on Celastrol-induced downregulation of TNFα mRNA [11, 14]: synergistically accentuate
effect on Gedunin-induced downregulation of TNFα mRNA [11, 15]: synergistically accentuate
effect on Celastrol-induced HSP70 expression in two other rMSC cell lines [11]: synergistic increase
effect on Celastrol-mediated protection of rMSCs from hypoxia induced cell death ([12]; combined with Celastrol): potentiates Celastrol-mediated protection
protection of rMSCs from 48-hour hypoxia induced cell death [12]: not

CC(C)(C)c1cc(O)ccc1O [tBHQ, tert-Butylhydroquinone]
viability of H9c2 cells following oxidative challenge (H9c2 cardiomyoblasts [1]): synergistic increase in viability
VEGF protein after 48 hours in hypoxic condition [3]: even greater expression of VEGF protein
VEGF protein after 48 hours in normal culture [3]: additive to synergistic increase in VEGF protein
protection of H9c2 cells from oxidative stress induced death (paracrine) (H9c2 cells): protects
ranking as adjunct agent in combination with Celastrol or Celastrol analogs (gene expression) [4]: among top adjunct agents
effect on Celastrol-induced Catalase (CAT) mRNA expression [11, 14]: synergistic increase
effect on Celastrol-induced FGF2 mRNA expression [11, 14]: synergistic increase
effect on Celastrol-induced Glutathione peroxidase (GPx) mRNA expression [11, 14]: synergistic increase
effect on Celastrol-induced Glutathione reductase (GR) mRNA expression [11, 14]: synergistic effect only at low dose
effect on Celastrol-induced HSP32 (HO-1) mRNA expression [11, 14]: synergistic increase
effect on Celastrol-induced HSP70 mRNA expression [11, 14]: synergistic increase
effect on Celastrol-induced Superoxide dismutase 1 (SOD1) mRNA expression [11, 14]: no effect
effect on Celastrol-induced VEGFα mRNA expression [11, 14]: decreases
effect on Celastrol-induced downregulation of TNFα mRNA [11, 14]: synergistically accentuate
FGF2 mRNA expression, combination with Gedunin [11, 15]: increased
effect on Gedunin-induced downregulation of TNFα mRNA [11, 15]: synergistically accentuate
effect on Gedunin expression of VEGF ([11]; rMSC, combined with Gedunin): decreases
effect on Celastrol-induced HSP70 expression in two other rMSC cell lines [11]: no effect
protection of rMSCs from 48-hour hypoxia induced cell death [12]: not
